Results as given in patent US20150197492A1, “NOVEL INDENO[1,2-c]QUINOLIN-11-ONE DERIVATIVES, PREPARATION METHOD AND APPLICATION THEREOF” (National Defense Medical Center, priority 2014, published 2015).

Columns and labels:
Type in all cases: cell-based
SK-MEL-5 = experiment: cells; conditions: SK-MEL-5 (Melanoma), 10 μM, 48 hours
IGROV1 = experiment: cells; conditions: IGROV1 (Ovarian Cancer), 10 μM, 48 hours
SNB-75 = experiment: cells; conditions: SNB-75 (CNS Cancer), 10 μM, 48 hours
SK-MEL-2 = experiment: cells; conditions: SK-MEL-2 (Melanoma), 10 μM, 48 hours
SK-OV-3 = experiment: cells; conditions: SK-OV-3 (Ovarian Cancer), 10 μM, 48 hours
HCT-15 = experiment: cells; conditions: HCT-15 (Colon Cancer), 10 μM, 48 hours
U251 = experiment: cells; conditions: U251 (CNS Cancer), 10 μM, 48 hours
HCC-2998 = experiment: cells; conditions: HCC-2998 (Colon Cancer), 10 μM, 48 hours
MDA-MB-231/ATCC = experiment: cells; conditions: MDA-MB-231/ATCC (Breast Cancer), 10 μM, 48 hours
M14 = experiment: cells; conditions: M14 (Melanoma), 10 μM, 48 hours
HOP-92 = experiment: cells; conditions: HOP-92 (Non-Small Cell Lung Cancer), 10 μM, 48 hours
RXF 393 = experiment: cells; conditions: RXF 393 (Renal Cancer), 10 μM, 48 hours
SF-539 = experiment: cells; conditions: SF-539 (CNS Cancer), 10 μM, 48 hours
MCF7 = experiment: cells; conditions: MCF7 (Breast Cancer), 10 μM, 48 hours
NCI-H226 = experiment: cells; conditions: NCI-H226 (Non-Small Cell Lung Cancer), 10 μM, 48 hours
RPMI-8226 = experiment: cells; conditions: RPMI-8226 (Leukemia), 10 μM, 48 hours
SW-620 = experiment: cells; conditions: SW-620 (Colon Cancer), 10 μM, 48 hours
HCT-116 = experiment: cells; conditions: HCT-116 (Colon Cancer), 10 μM, 48 hours
A498 = experiment: cells; conditions: A498 (Renal Cancer), 10 μM, 48 hours
TK-10 = experiment: cells; conditions: TK-10 (Renal Cancer), 10 μM, 48 hours
COLO 205 = experiment: cells; conditions: COLO 205 (Colon Cancer), 10 μM, 48 hours
LOX IMVI = experiment: cells; conditions: LOX IMVI (Melanoma), 10 μM, 48 hours
HOP-62 = experiment: cells; conditions: HOP-62 (Non-Small Cell Lung Cancer), 10 μM, 48 hours
SF-268 = experiment: cells; conditions: SF-268 (CNS Cancer), 10 μM, 48 hours
K-562 = experiment: cells; conditions: K-562 (Leukemia), 10 μM, 48 hours
NCI-H460 = experiment: cells; conditions: NCI-H460 (Non-Small Cell Lung Cancer), 10 μM, 48 hours
NCI/ADR-RES = experiment: cells; conditions: NCI/ADR-RES (Ovarian Cancer), 10 μM, 48 hours
HL-60 (TB) = experiment: cells; conditions: HL-60 (TB) (Leukemia), 10 μM, 48 hours
NCI-H23 = experiment: cells; conditions: NCI-H23 (Non-Small Cell Lung Cancer), 10 μM, 48 hours
A549/ATCC = experiment: cells; conditions: A549/ATCC (Non-Small Cell Lung Cancer), 10 μM, 48 hours
UO-31 = experiment: cells; conditions: UO-31 (Renal Cancer), 10 μM, 48 hours
EKVX = experiment: NCI cancer cell cytotoxicity assay, Non-Small Cell Lung Cancer EKVX; conditions: 10 μM, 48 hours

| Structure (SMILES) | growth percentage (SK-MEL-5) [%] | growth percentage (IGROV1) [%] | growth percentage (SNB-75) [%] | growth percentage (SK-MEL-2) [%] | growth percentage (HCT-15) [%] | growth percentage (U251) [%] | growth percentage (HCC-2998) [%] | growth percentage (MDA-MB-231/ATCC) [%] | growth percentage (M14) [%] | growth percentage (RXF 393) [%] | growth percentage (SF-539) [%] | growth percentage (MCF7) [%] | growth percentage (NCI-H226) [%] | growth percentage (RPMI-8226) [%] | growth percentage (SW-620) [%] | growth percentage (HCT-116) [%] | growth percentage (TK-10) [%] | growth percentage (COLO 205) [%] | growth percentage (LOX IMVI) [%] | growth percentage (HOP-62) [%] | other results |
| --- | --- | --- | --- | --- | --- | --- | --- | --- | --- | --- | --- | --- | --- | --- | --- | --- | --- | --- | --- | --- | --- |
| CN1CCN(c2nc3ccccc3c3c2-c2ccc(Cl)cc2C3=O)CC1 [SJ-12, 9-Chloro-6-(4-methylpiperazin-1-yl)-11H-indeno[1,2-c]quinolin-11-one] | 97.67 | 75.03 | 70.00 | 104.36 | 92.83 | 85.86 | 103.21 | 62.53 | 106.31 | 94.00 | 95.23 | 68.30 | 86.17 | 85.92 | 92.76 | 92.78 | 99.56 | 93.65 | 87.17 | 61.42 | growth percentage (SK-OV-3): 87.98%; growth percentage (HOP-92): 38.50%; growth percentage (A498): 72.81%; growth percentage (SF-268): 92.35%; growth percentage (K-562): 92.13%; growth percentage (NCI-H460): 91.83%; growth percentage (NCI/ADR-RES): 88.19%; growth percentage (HL-60 (TB)): 101.15%; growth percentage (NCI-H23): 86.27%; growth percentage (A549/ATCC): 96.43%; growth percentage (UO-31): 47.60% |
| CN(C)c1nc2ccccc2c2c1-c1ccc(Cl)cc1C2=O [SJ-2, 9-Chloro-6-(dimethylamino)-11H-indeno[1,2-c]quinolin-11-one] | 94.89 | 83.38 | 69.12 | 95.09 | 80.49 | 98.98 | 81.50 | 76.68 | 113.63 | 101.32 | 87.80 | 23.99 | 84.79 | 88.05 | 96.35 | 98.57 | 91.84 | 100.97 | 85.45 | 78.02 | growth percentage (SK-OV-3): 99.12%; growth percentage (HOP-92): 44.26%; growth percentage (A498): 96.00%; growth percentage (SF-268): 100.26%; growth percentage (K-562): 88.81%; growth percentage (NCI-H460): 94.17%; growth percentage (NCI/ADR-RES): 92.57%; growth percentage (HL-60 (TB)): 95.49%; growth percentage (NCI-H23): 82.62%; growth percentage (A549/ATCC): 98.85%; growth percentage (UO-31): 48.63% |
| O=C1c2cc(Cl)ccc2-c2c(SCCO)nc3ccccc3c21 [SJ-25, 6-(2-Hydroxyethylthio)-9-chloro-11H-indeno[1,2-c]quinolin-11-one] | 68.56 | 69.73 | 66.06 | 95.85 | 80.10 | 78.04 | 96.27 | 72.56 | 98.89 | 79.39 | 100.05 | 67.82 | 80.52 | 62.28 | 86.99 | 77.94 | 99.82 | 87.39 | 68.41 | 91.46 | growth percentage (SF-268): 96.53%; growth percentage (K-562): 63.81%; growth percentage (NCI-H460): 79.22%; growth percentage (NCI/ADR-RES): 73.58%; growth percentage (HL-60 (TB)): 91.75%; growth percentage (NCI-H23): 66.22%; growth percentage (EKVX): 30.15%; growth percentage (A549/ATCC): 76.42%; growth percentage (UO-31): 56.23% |
| O=C1c2cc(Cl)ccc2-c2c(N3CCOCC3)nc3ccccc3c21 [SJ-8, 9-Chloro-6-morpholino-11H-indeno[1,2-c]quinolin-11-one] | 99.19 | 86.47 | 81.55 | 104.29 | 80.29 | 95.72 | 107.23 | 79.28 | 106.99 | 114.61 | 96.24 | 52.31 | 87.21 | 83.40 | 103.71 | 93.64 | 101.98 | 100.71 | 91.20 | 78.71 | growth percentage (SK-OV-3): 107.26%; growth percentage (HOP-92): 66.08%; growth percentage (A498): 93.88%; growth percentage (SF-268): 103.58%; growth percentage (K-562): 89.01%; growth percentage (NCI-H460): 102.14%; growth percentage (NCI/ADR-RES): 94.32%; growth percentage (HL-60 (TB)): 97.09%; growth percentage (NCI-H23): 90.40%; growth percentage (A549/ATCC): 101.47%; growth percentage (UO-31): 45.74% |
| O=C1c2cc(Cl)ccc2-c2c(O)nc3ccccc3c21 [SJ-26, 6-Hydroxy-9-chloro-11H-indeno[1,2-c]quinolin-11-one] | 84.87 | 91.28 | 80.33 | 117.12 | 108.54 | 96.46 | 102.24 | 86.98 | 108.50 | 99.93 | 105.79 | 68.09 | 85.66 | 90.60 | 95.26 | 103.43 | 126.63 | 98.25 | 86.91 | 91.26 | growth percentage (SF-268): 106.64%; growth percentage (K-562): 97.48%; growth percentage (NCI-H460): 83.32%; growth percentage (NCI/ADR-RES): 97.00%; growth percentage (HL-60 (TB)): 102.31%; growth percentage (NCI-H23): 81.56%; growth percentage (EKVX): 72.14%; growth percentage (A549/ATCC): 104.88%; growth percentage (UO-31): 70.50% |
